Results reported in patent publication US6432973B1, “Water soluble rapamycin esters” (Wyeth, priority 2000, dated 2002).
In brackets after ≈: the same amount, converted by molar mass.

Legend:
[1] = test system: U87MG human glioblastoma cells; assay: inhibition of U87MG human glioblastoma cell growth (3H-thymidine incorporation); type: cell-based; conditions: U-87 MG, 48 hours incubation
Protocol: The antitumor activity of the compounds of this invention were confirmed in a standard pharmacological test procedure which measures the inhibition of U87MG human glioblastoma cell growth (as a function of ^3H-thymidine incorporation), using CCl-779-PEG 5000 ester (Compound III) and CCl-779-(PEG 5000)2 ester (Compound IV) as representative compounds of this invention. The following briefly describes the procedure used and results obtained. U87MG human glioblastoma cells (ATCC #HTB-14; available from the American Type Culture Collection; 10801 University Boulevard; Manassas, Va. 20110;), were grown in the following media.
Growth Medium: BRL Minimum Essential Medium with Earle Salts (500 mL)
+5 mL BRL MEM Non-Essential Amino Acids (10 mM)
+5 mL BRL Na Pyruvate Solution (100 mM)
+5 mL BRL L-Glutamine 200 mM
+50 mL BRL Fetal Bovine Serum (Qualified)
1. Cells were trypsinized and plated at a concentration of 10^4 cells/well in a final volume of 200 μL growth medium in 96-well flat bottom plates and allowed to adhere for 24 hours at 37° C.
2. The media was removed by aspiration with care to not disturb the cell monolayer. 200 μL of fresh growth media was added per well, allowing enough wells for samples to be run in triplicate. Test compounds were added in 10 μL phosphate buffer solution (PBS) and incubated for another 48 hours at 37° C.
3. […]
4. […] Mats were counted in a Wallac Betaplate counter.

water solubility = type: physicochemical
Description: Such doses may be administered in any manner useful in directing the active compounds herein to the recipient's bloodstream, including orally, via implants, parenterally (including intravenous, intraperitoneal and subcutaneous injections), rectally, intranasally, vaginally, and transdermally. […] This advantage is particularly important for oral and parenteral administration.

IC50 [1]: 0.6 ng/mL (≈ 0.582 nM)
solubility (water solubility): < 1.1 µg/mL
SMILES: CO[C@H]1C[C@@H]2CC[C@@H](C)[C@@](O)(O2)C(=O)C(=O)N2CCCC[C@H]2C(=O)O[C@H]([C@H](C)C[C@@H]2CC[C@@H](OC(=O)C(C)(CO)CO)[C@H](OC)C2)CC(=O)[C@H](C)/C=C(\C)[C@@H](O)[C@@H](OC)C(=O)[C@H](C)C[C@H](C)/C=C/C=C/C=C/1C [CCI-779, rapamycin 42-ester with 3-hydroxy-2-(hydroxymethyl)-2-methylpropionic acid]
